According to publication PMC5372560, “D-Amino Acid Position Influences the Anticancer Activity of Galaxamide Analogs: An Apoptotic Mechanism Study” (International Journal of Molecular Sciences, 2017):
In brackets after ≈: the same amount, converted by molar mass. Several values for one entry are separate records, joined by “and”; a condition that tells them apart may be missing. Equal values may be shown once. Where a SMILES comes first, the peptide text is derived from it. [ ]: non-standard residue; d: D form. NMeL = CN[C@@H](CC(C)C)C(=O)O

Columns and labels:
[1] = system: human hepatocellular cells (HepG2); type: cell-based; settings: 48 h
Procedure: (§1) Human hepatocellular cells (HepG2), human breast cancer cells (MCF-7), human breast adenocarcinoma cells (MDA-MB-435) and a human cervical carcinoma cell line (Hela) were selected as our in vitro cancerous cell models. The cells were all cultured in DMEM medium containing 10% fetal bovine serum, 1% penicillin-streptomycin and antifungal agent, incubated at 37 °C with 5% CO2 and 90% humidity. The cytotoxicity of Galaxamide and its analogs on the four cancerous cells was evaluated using the MTT method. […] After that, 20 µL MTT reagents were added to each well and incubated between 3–5 h according to the nature of cells; the color intensity of the cell culture at 570 nm was measured using a microplate spectrophotometer. Finally, the cell viability was calculated accordingly. Note: […]

[2] = system: human cervical carcinoma cell line (Hela); type: cell-based; settings: 48 h
Procedure: as §1

[3] = system: human breast cancer cells (MCF-7); type: cell-based; settings: 48 h
Procedure: as §1

[4] = system: human breast adenocarcinoma cells (MDA-MB-435); type: cell-based; settings: 48 h
Procedure: as §1

[5] = system: human renal cell carcinoma GRC-1; settings: in vitro, GRC-1 cell line; cited from earlier work
Description: (§2) In our initial work, a novel cyclic-pentapeptide named Galaxamide was isolated from a marine algae Galaxaura filamentosa collected from Xisha Island in the South China Sea. Galaxamide is a cyclic-pentapeptide composed of five L-leucines, including two N-methylated ones. N-methylated amino acid is an important component endowing the anticancer potential to the cyclopeptides.

[6] = system: human hepatocellular carcinoma HepG2; settings: in vitro, HepG2 cell line; cited from earlier work
Description: as §2

[7] = system: HepG2 cells; assay: Hoechst 33342 staining, nuclear morphology; type: cell-based, human; settings: HepG2, increasing concentration up to 15 µg/mL, 48 h, fluorescence microscope
Procedure: We then investigated the effect of Galaxamide and Analog-6 on the cell morphology and nuclear integrity. HepG2 cells were treated with an increasing concentration of Analog-6 for 48 h and then stained by Hoechst 33342 (a DNA fluorescent dye). The effect of Galaxamide on HepG2 cells was used as a control. Noting that Hoechst 33342 is a DNA fluorescent dye, the fluorescently-stained DNA presents a blue color under the fluorescence microscope.
HepG2 cells were seeded in 6-well tissue culture plates at a concentration of 1 × 10^5 cells/well. Galaxamide and its analogs with a concentration of 0, 5, 10 and 15 µg/mL were added to the cell cultures and incubated for 48 h. After that, cells were fixed with 3.7% of paraformaldehyde for 10 min and washed three times with PBS. Then, Hoechst 33342 was added for cell staining, then visualized using a fluorescent microscope.

[8] = system: human normal liver cell line L02; settings: cited from earlier work
Description: In our previous work, we synthesized several Galaxamide analogs and tested their cytotoxicity on a normal cell line (human normal liver cell line L02) and a broad range of cancerous cell lines in vitro.

[9] = system: HepG2 cells; assay: Cell cycle analysis by propidium iodide staining, flow cytometry; type: cell-based, human; settings: 48 h, PI staining
Procedure: In particular, HepG2 cells were exposed to Galaxamide, Analog-4 and Analog-6 with concentrations of 0, 5, 10 and 15 µg/mL for 48 h. Generally, treatment with Galaxamide, Analog-4 and -6 all caused changes in the cell cycle of HepG2 cells, mainly in the sub-G1 stage, where a subdiploid peak was detected, indicating their apoptotic effects on HepG2 cells.
(§3) HepG2 cells were seeded in 6-well tissue culture plates at a concentration of 1 × 10^5 cells/well. Galaxamide and its analogs with a concentration of 0, 5, 10 and 15 µg/mL were added to the cell cultures and incubated for 48 h. After that, 5 µL Annexin V-fluorescein isothiocyanate (FITC) and 5 µL of PI were added for dual staining of the cells and analyzed by FACScan flow cytometry. Cell cycle and apoptotic cells were determined by counting the FITC-positive and PI-negative fractions.

[10] = system: HepG2 cells; assay: Annexin V-FITC / PI dual staining, flow cytometry (apoptosis); type: cell-based, human; settings: 48 h
Procedure: To further study the apoptotic mechanism of Analog-6, the Annexin V-fluorescein isothiocyanate (FITC) and propidium iodide (PI) dual staining method was used. Briefly, HepG2 cells were treated with 0, 5, 10 and 15 µg/mL Analog-6 for 48 h. Then, cells were washed several times with PBS and stained by dual staining of two fluorescent dyes, Annexin V-FITC and PI, and analyzed by flow cytometry. Results are shown in Figure 5, where HepG2 cells exposed to Galaxamide were used as the control. Note that Q1, Q2, Q3 and Q4 in the figure represent four quadrants of necrotic cells, late apoptotic cells, normal cells and early apoptotic cells, respectively.
as §3

[11] = system: poly(ADP-ribose) polymerase (PARP); assay: Western blot, cleaved PARP expression; type: cell-based, human; settings: HepG2, 15 µg/mL, 48 h
Procedure: (§4) There are two major pathways involved in cells apoptosis: the mitochondria-mediated intrinsic pathway and the death receptor-mediated extrinsic pathway. To elucidate the possible mechanism of the apoptotic effects of Analog-6, Western blot experiments were performed. HepG2 cells were treated with 0, 5, 10 and 15 µg/mL Analog-6 for 48 h, and then expression of cleaved caspase-3, caspase-9 and poly(ADP-ribose) polymerase (PARP) was quantified, results are shown in Figure 6.
(§5) Target proteins were first extracted using Radio-Immunoprecipitation Assay (RIPA) buffer and quantified by the Bradford method. Then, proteins were transferred to a polyvinylidene difluoride (PVDF) membrane, and the membrane was blocked with 5% non-fat milk for 1 h and incubated with a primary antibody (Cell Signaling Technology, Danvers, MA, USA, rabbit monoclonal antibody, 1:1000) at 4 °C overnight. After that, the membrane was washed two times with TBST buffer (Tris-buffered saline with 0.1% Tween-20) and incubated with a secondary antibody (goat-anti-rabbit horseradish peroxidase (HRP)-conjugated 1:15,000) for 1 h under room temperature. Finally, the membrane was washed three times with TBST, and the intensity of the specific immunoreactive bands was detected by enhanced chemiluminescence.

[12] = system: cleaved caspase-3; assay: Western blot, cleaved caspase-3 expression; type: cell-based, human; settings: HepG2, 15 µg/mL, 48 h
Procedure: as §4, §5

[13] = system: caspase-9; assay: Western blot, caspase-9 expression; type: cell-based, human; settings: HepG2, 15 µg/mL, 48 h
Procedure: as §4, §5

| IC50 (µg/mL) in Different Cell Lines, HepG2 [1] | IC50 (µg/mL) in Different Cell Lines, Hela [2] | IC50 (µg/mL) in Different Cell Lines, MCF-7 [3] | IC50 (µg/mL) in Different Cell Lines, MDA-MB-435 [4] | SMILES | G0/G1 cells ([9]; HepG2, 5 µg/mL) | G2/M cells ([9]; HepG2, 5 µg/mL) | S cells ([9]; HepG2, 5 µg/mL) | Sub-G1 cells ([9]; HepG2, 5 µg/mL) | G0/G1 cells ([9]; HepG2, 10 µg/mL) | G2/M cells ([9]; HepG2, 10 µg/mL) | S cells ([9]; HepG2, 10 µg/mL) | Sub-G1 cells ([9]; HepG2, 10 µg/mL) | G0/G1 cells ([9]; HepG2, 15 µg/mL) | G2/M cells ([9]; HepG2, 15 µg/mL) | S cells ([9]; HepG2, 15 µg/mL) | Sub-G1 cells ([9]; HepG2, 15 µg/mL) | further results |
| --- | --- | --- | --- | --- | --- | --- | --- | --- | --- | --- | --- | --- | --- | --- | --- | --- | --- |
| 5.85 ± 0.13 µg/mL (≈ 9.32 µM) | 6.85 ± 0.26 µg/mL (≈ 10.9 µM) | 13.03 ± 0.33 µg/mL (≈ 20.8 µM) | 9.76 ± 0.18 µg/mL (≈ 15.5 µM) | CC(C)C[C@@H]1NC(=O)[C@H](CC(C)C)N(C)C(=O)[C@H](CC(C)C)NC(=O)[C@H](CC(C)C)N(C)C(=O)[C@H](Cc2ccccc2)NC1=O [Analog-1, Cyclo(Me-Leu-Leu-Phe-Me-Leu-Leu)] | – | – | – | – | – | – | – | – | – | – | – | – | – |
| 4.56 ± 0.22 µg/mL (≈ 7.26 µM) | 4.95 ± 0.18 µg/mL (≈ 7.88 µM) | 9.64 ± 0.27 µg/mL (≈ 15.4 µM) | 9.5 ± 0.32 µg/mL (≈ 15.1 µM) | CC(C)C[C@@H]1NC(=O)[C@H](CC(C)C)N(C)C(=O)[C@H](CC(C)C)NC(=O)[C@H](CC(C)C)N(C)C(=O)[C@@H](Cc2ccccc2)NC1=O [Analog-2, Cyclo(Me-Leu-Leu-D-Phe-Me-Leu-Leu)] | – | – | – | – | – | – | – | – | – | – | – | – | – |
| 4.1 ± 0.20 µg/mL (≈ 6.53 µM) | 3.42 ± 0.25 µg/mL (≈ 5.45 µM) | 8.15 ± 0.18 µg/mL (≈ 13 µM) | 6.76 ± 0.22 µg/mL (≈ 10.8 µM) | CC(C)C[C@@H]1NC(=O)[C@H](CC(C)C)N(C)C(=O)[C@H](Cc2ccccc2)NC(=O)[C@@H](CC(C)C)NC(=O)[C@H](CC(C)C)N(C)C1=O [Analog-6, Cyclo(Me-Leu-D-Leu-Phe-Me-Leu-Leu)] | 61.5% | 21.6% | 16.9% | 3.30% | 56.8% | 14.4% | 28.8% | 5.36% | 88.6% | 4.22% | 7.18% | 67.9% and 68% | nuclei morphology after Hoechst 33342 staining [7]: severely damaged; increased fold of PARP expression [11]: 6.8 fold; increased fold of cleaved caspase-3 expression [12]: 3.4 fold; increased fold of caspase-9 expression [13]: 3.3 fold; Q4, early apoptotic cells ([10]; HepG2, 5 µg/mL): 7.3%; Q4, early apoptotic cells ([10]; HepG2, 10 µg/mL): 16.9%; Q4, early apoptotic cells ([10]; HepG2, 15 µg/mL): 49.4% and ~50% |
| 7.2 ± 0.15 µg/mL (≈ 11.5 µM) | 4.2 ± 0.32 µg/mL (≈ 6.69 µM) | 8.62 ± 0.26 µg/mL (≈ 13.7 µM) | 7.67 ± 0.18 µg/mL (≈ 12.2 µM) | CC(C)C[C@@H]1NC(=O)[C@H](CC(C)C)N(C)C(=O)[C@@H](CC(C)C)NC(=O)[C@H](CC(C)C)N(C)C(=O)[C@H](Cc2ccccc2)NC1=O [Analog-4, Cyclo(Me-Leu-Leu-Phe-Me-Leu-D-Leu)] | 70.5% | 9.33% | 20.2% | 1.78% | 64.2% | 12.9% | 22.9% | 7.1% | 67.6% | 5.91% | 26.5% | 35.5% | – |

The next lines start with the compound.

| SMILES | IC50 (µg/mL) in Different Cell Lines, HepG2 [1] | IC50 (µg/mL) in Different Cell Lines, Hela [2] | IC50 (µg/mL) in Different Cell Lines, MCF-7 [3] | IC50 (µg/mL) in Different Cell Lines, MDA-MB-435 [4] | G0/G1 cells ([9]; HepG2, 5 µg/mL) | G2/M cells ([9]; HepG2, 5 µg/mL) | S cells ([9]; HepG2, 5 µg/mL) | Sub-G1 cells ([9]; HepG2, 5 µg/mL) | G0/G1 cells ([9]; HepG2, 10 µg/mL) | G2/M cells ([9]; HepG2, 10 µg/mL) | S cells ([9]; HepG2, 10 µg/mL) | Sub-G1 cells ([9]; HepG2, 10 µg/mL) | G0/G1 cells ([9]; HepG2, 15 µg/mL) | G2/M cells ([9]; HepG2, 15 µg/mL) | S cells ([9]; HepG2, 15 µg/mL) | Sub-G1 cells ([9]; HepG2, 15 µg/mL) | further results |
| --- | --- | --- | --- | --- | --- | --- | --- | --- | --- | --- | --- | --- | --- | --- | --- | --- | --- |
| CC(C)C[C@@H]1NC(=O)[C@@H](CC(C)C)N(C)C(=O)[C@H](CC(C)C)NC(=O)[C@H](CC(C)C)N(C)C(=O)[C@H](Cc2ccccc2)NC1=O [Analog-5, Cyclo(Me-D-Leu-Leu-Phe-Me-Leu-Leu] | 10.72 ± 0.32 µg/mL (≈ 17.1 µM) | 7.4 ± 0.33 µg/mL (≈ 11.8 µM) | 15.21 ± 0.29 µg/mL (≈ 24.2 µM) | 20.43 ± 0.23 µg/mL (≈ 32.5 µM) | – | – | – | – | – | – | – | – | – | – | – | – | – |
| CC(C)C[C@@H]1NC(=O)[C@H](CC(C)C)N(C)C(=O)[C@H](CC(C)C)NC(=O)[C@H](CC(C)C)N(C)C(=O)[C@H](CC(C)C)NC1=O [Galaxamide] (cyclo(LL[NMeL]L[NMeL])) | – | – | – | – | 71.2% | 9.18% | 19.6% | 1.30% | 73.7% | 9.03% | 17.2% | 8.81% | 70.8% | 9.46% | 19.8% | 13.1% | IC50, antiproliferative activity, GRC-1 [5]: 4.26 µg/mL (≈ 7.17 µM); IC50, antiproliferative activity, HepG2 [6]: 4.63 µg/mL (≈ 7.8 µM); nuclei morphology after Hoechst 33342 staining [7]: slight shrinking of nuclei; IC50, cytotoxicity on normal L02 [8]: > 40 µg/mL; Q4, early apoptotic cells ([10]; HepG2, 5 µg/mL): 1.8%; Q4, early apoptotic cells ([10]; HepG2, 10 µg/mL): 10.6%; Q4, early apoptotic cells ([10]; HepG2, 15 µg/mL): 12.1% |
| CC(C)C[C@@H]1NC(=O)[C@H](CC(C)C)N(C)C(=O)[C@H](CC(C)C)NC(=O)[C@@H](CC(C)C)N(C)C(=O)[C@H](Cc2ccccc2)NC1=O [Analog-3, Cyclo(Me-Leu-Leu-Phe-Me-D-Leu-Leu)] | 7.71 ± 0.11 µg/mL (≈ 12.3 µM) | 4.39 ± 0.26 µg/mL (≈ 6.99 µM) | 18.16 ± 0.33 µg/mL (≈ 28.9 µM) | 12.6 ± 0.29 µg/mL (≈ 20.1 µM) | – | – | – | – | – | – | – | – | – | – | – | – | – |
